We go through 92 compounds from a melting point compilation (Tetko et al.; mined from patent text by program, amines drawn as free bases though some values may be those of a salt).

As a reminder, the melting point is the temperature, or range, at which the solid turns liquid.

Turning to `CN(C)C(=O)c1nc(-c2ccncc2)nc2c1c1ccc(Cl)cc1n2C`, the melting point lay within 268 to 269 °C.
`c1ccc2c(c1)OC(c1ccc(OCCN3CCCCC3)cc1)c1c-2sc2ccccc12` (configuration not stated) came in with a melting point of 107 °C.
The result for `Cc1cc(I)ccc1NC(=S)N(C)N` reads 160 to 161 °C.
With `CC(C)(C)OC(=O)NC(Cc1c[nH]cn1)C(=O)N1CCCC1C(N)=O` (configuration not stated), the melting point was in the range of 97 to 101 °C.
Compound `C=C(C)COc1ccc(C(=O)C=Cc2ccc(Br)cc2)c(O)c1` came in with a melting point of 121 to 122 °C.
In turn, `O=C(O)[C@@H]1CSC2(CCSCC2)N1` gave a melting point of 196 °C.
For `CCCCC(=O)c1c(-c2ccc3c(Cl)c(OCc4nnn[nH]4)ccc3c2)oc2ccccc12`, the melting point is 168 to 169 °C.
In turn, `Oc1ccccc1CCCC1CCNCC1` gave a melting point of 152 °C.
In the case of `CN1Cc2ccccc2C(=O)c2c1nc1ccc(Br)cc1c2Cl`, the melting point was 153 to 155 °C.
Consider `COc1ccccc1NC(=O)Nc1nc(N2CCCCC2)nc(N(CCC(=O)O)Cc2ccc(Cl)c(Cl)c2)n1`, for which the melting point lay within 111 to 115 °C.
Regarding `Cc1cccc2ncc(C(=O)Nc3ccccc3)c(=O)n12`, the melting point lay in the range of 186 to 188 °C.
`Cc1sc(N2CCOCC2)nc1CCl`: the melting point was in the range of 110 to 111 °C.
As to `O=C(O)c1ccc(C(F)(F)C(F)(F)F)cc1[N+](=O)[O-]`, the melting point is 124 to 135 °C.
In turn, `NS(=O)(=O)c1cc2c(c(Cl)c1Cl)OC(CCl)C2` (configuration not stated) showed a melting point of 195 to 196 °C.
As for `c1ccc(COc2cncc(N3CCNCC3)n2)cc1`, the melting point was 155 to 156 °C.
Turning to `O=C(Nc1cc2ncc(CN3CCCC3)cc2cc1F)c1ccc(-c2ccc(Cl)cc2)cc1`, the melting point lay within 218 to 220 °C.
On to `Cc1ccc(I)cc1Cc1ccc(-c2ccc(F)cc2)s1`, for which the melting point was 109 to 110 °C.
In turn, `FC(F)=C(F)Oc1ccc(C2(c3ccc(OC(F)=C(F)F)cc3)c3ccccc3-c3ccccc32)cc1` had a melting point of 115 to 116 °C.
The result for `COc1ccc(OCC2SCCN2C(=O)CCl)cc1` (configuration not stated) reads 51 to 53 °C; that for `CN(C)CCOc1ccc(CN2C(=O)C3(COc4cc5c(cc43)OCCO5)c3ccccc32)cc1` (configuration not stated), 77 to 79 °C; that for `CCC(O)(CCC(N)=O)c1ccc(Br)cc1` (configuration not stated), 122 to 123 °C.
Compound `CN(c1nc2cc(NC(=O)OC(C)(C)C)ccn2n1)C1CC1` yielded a melting point of 323 °C.
On to `CC(C)OCCCNC(=O)CN1C(=O)C2(COc3cc4c(cc32)CCO4)c2ccccc21` (configuration not stated), for which the melting point lay in the range of 149 to 151 °C.
For the compound `CCC(C)(c1ccc(O)c(C)c1)c1ccc(O)c(C)c1`, the melting point was 144 to 146 °C.
In turn, `Cc1ccc(C(=O)O)c(Nc2cc(C)nn2C)c1` came in with a melting point of 188 to 192 °C.
As for `OC1CSc2nc(SCc3ccccc3)nn21` (configuration not stated), the melting point is 136 to 138 °C.
In turn, `O=C1C=CCC(c2ccccc2)(c2ccccc2)O1` returned a melting point of 170 to 173 °C.
The compound `COc1ccccc1Sc1c(O)c2c(Cl)cc(Cl)cc2[nH]c1=O` had a melting point of 269 to 270 °C.
Compound `COC(=O)[C@@H](Cc1ccccc1)Oc1c(Br)cc(-c2c3ccccc3c(Br)c3sc(C)c(C)c23)cc1Br` registered a melting point of 174 to 175 °C.
On to `COc1cccc2sc3cc(=O)ccc-3nc12`, for which the melting point was in the range of 206 to 207 °C.
Consider `CCCCC(OC)c1c(C(C)C)nc(C(C)C)c(CO)c1-c1ccc(F)cc1` (configuration not stated), for which the melting point lay within 121 to 123 °C.
On to `COc1cc(Nc2nc3cccc(-c4ccc(CN)cc4)c3o2)cc(OC)c1OC`, for which the melting point lay within 208 to 211 °C.
`CC(C)OC(=O)c1ncn2c3cccc(Cl)c3c(=O)n(C)c12` showed a melting point of 216 to 220 °C.
With `CCOc1c([N+](=O)[O-])cnn1-c1c(Cl)cc(C(F)(F)F)cc1Cl`, the melting point was 84 to 86 °C.
On to `O=C(O)c1cc(OCCCc2ccccc2)cc(OCCCc2ccccc2)c1`, for which the melting point lay within 107 to 109 °C.
For the compound `CCc1ncc(CCCO)n1C`, the melting point was in the range of 69 to 71 °C.
As for `Cc1ccc(-c2c(C(=O)O)oc(=O)c3cnccc23)cc1`, the figure is 254 to 256 °C; as for `CN(O)C(=O)Cc1ccccc1Nc1c(Cl)cccc1Cl`, 135 to 138 °C; as for `CC1(C)CC(N(CCCCO)S(C)(=O)=O)c2cc(OCc3ccccc3)ccc2O1` (configuration not stated), 113 to 115 °C.
On to `COc1cccc(C2=C(CC(C)N3CCCC3)C(=O)NCCC2)c1` (configuration not stated), for which the melting point was 94 to 96 °C.
As to `CCOc1cc2cc(C(=O)O)sc2cc1OCC`, the melting point was in the range of 243 to 245 °C.
For the compound `CCCc1c(OCCCOc2cccc(C(=O)NCCCCc3cccnc3)c2)ccc(C(C)=O)c1O`, the melting point lay in the range of 84 to 86 °C.
The result for `CCSc1cc2ncc(C#N)c(Nc3cc(OC)c(Cl)cc3Cl)c2cc1OC` reads 212 to 214 °C; that for `N#CC=CC(=O)C=NN1CC(=O)NC1=O`, 171 to 173 °C; that for `NC(=O)c1snc(Cl)c1Cl`, 156 to 158 °C.
Take `O=[N+]([O-])c1ccc2oc(-c3ccccc3)cc2c1`: the melting point came to 159 °C.
The compound `COC(=O)c1cc(-c2ccc(F)c(C)c2)nn(Cc2ccccc2)c1=O` came in with a melting point of 109 to 110 °C.
The result for `Cn1cc(CC(NC(=O)CCCC(=O)O)C(=O)NCCCCNC(=N)N)c2ccccc21` (configuration not stated) reads 291 °C.
As to `COc1cc(C)c(C=CC(C)=CC=C(C)C(=O)O)cc1C`, the melting point fell in the range of 222 to 224 °C.
`Cn1c(C(F)(F)F)c(Cl)c(=O)n(-c2ccc(Cl)c3nc(C(C)(C)C)oc23)c1=O` came in with a melting point of 83 to 86 °C.
Turning to `CC(CO)N1CCN(c2ccccn2)CC1` (configuration not stated), the melting point is 62 to 64 °C.
The compound `COC(=O)/C(=C/C=C/c1cn(C(C)=O)c2ccccc12)OC` showed a melting point of 107 to 108 °C.
Regarding `CC(=O)OCC1OC(n2cc(C)c(=S)[nH]c2=S)CC1F` (configuration not stated), the melting point lay within 113 to 114 °C.
Compound `CN(C)C1CN(c2c(F)cc3c(=O)c(C(=O)O)cn(C4CC4)c3c2F)C1` displayed a melting point of 256 to 260 °C.
The result for `O=C(O)[C@H]1CCn2c(cc3ccccc32)C1` reads 244 to 246 °C; that for `COc1cc(-c2csc(C)n2)cc2oc(=O)c(C)c(C)c12`, 149 to 150 °C; that for `CC(C)(C)OC(=O)C(C)(C)ON=C1C=CC=CC1CC(=O)O` (configuration not stated), 102 to 105 °C.
The result for `CCOC(=O)c1nnc2c(sc3nc(C)ccc32)c1OCC` reads 158 to 160 °C.
The result for `CCOP(=S)(OCC)N1C(=O)c2ccccc2C1=O` reads 81 to 83 °C; that for `CCOC(=O)N1c2cc(OC)c(OC)cc2C(=O)C(=CN(C)C)C1C` (configuration not stated), 130 to 131 °C; that for `Cc1[nH]cnc1CCCCNC(=N)N`, 152 to 154 °C.
The compound `Cc1c(CCc2ccc3nc(N)oc3c2)nc2cc(CN)ccn12` showed a melting point of 218 to 221 °C.
For the compound `Cc1cccc(C)c1N(Cn1cncn1)C(=O)CCl`, the melting point fell in the range of 115 to 118 °C.
Take `COC(=O)C1=C(C)NC(C)=C(C(=O)OCCN2CCN(C(c3ccccc3)c3ccccc3)CC2)C1c1cccc(Cl)c1` (configuration not stated): the melting point fell in the range of 74 to 80 °C.
In the case of `CN1C=C(c2ccccc2)c2cccc(NC(=O)C=NO)c2C1`, the melting point was 151 °C.
`COc1ccnc(C(=O)N[C@H]2COC[C@H](CC3CCCCC3)[C@@H](OCC(C)C)[C@H](C)OC2=O)c1O` had a melting point of 89 to 92 °C.
With `O=C1NCN2c3ccccc3Sc3cccc1c32`, the melting point was 187 to 192 °C.
`CC(C)n1nc(-c2c(-c3ccccc3)nn3ccc(OCC(=O)NC4CC4)cc23)ccc1=O` returned a melting point of 199 to 200 °C.
As for `CC(C)COC(=O)Oc1c(S(N)(=O)=O)sc2ccccc12`, the figure is 129 to 130 °C.
The result for `CC1(C)OC(=O)Nc2ccc(OCCCCS(=O)c3ccc(Cl)c(Cl)c3)cc21` (configuration not stated) reads 138 to 139 °C; that for `O=C(Nc1ccc(-c2nc3ccccc3s2)cc1)c1ccccc1`, 227 to 228 °C; that for `COC(=O)C1=Cc2cc([N+](=O)[O-])ccc2N(C)CCC1`, 127 to 129 °C.
For the compound `COc1ccc(N2CCN(c3c(C)c(C)c4c(c3C)CC(C)(CN3CCC(O)CC3)O4)CC2)cc1` (configuration not stated), the melting point lay within 139 to 143 °C.
Turning to `CCN(CC(C)Nc1c(C)cccc1C)C(C)=O` (configuration not stated), the melting point fell in the range of 58 to 60 °C.
The result for `COCC(C)Oc1cc(Oc2ccc(S(C)(=O)=O)cc2)cc2cc(C3=NCC(C(OC)OC)S3)[nH]c12` (configuration not stated) reads 109 to 112 °C; that for `CC(C)n1c(=O)[nH]oc1=O`, 150 °C; that for `CC[C@H]1[C@H](O)CC(=O)N1c1ccc(C#N)c(Cl)c1`, 118 to 120 °C.
Regarding `CCCN1CCCC2CC3=C(CCC(=O)N3)CC21` (configuration not stated), the melting point was 183 to 184 °C.
Take `NC(=O)NCNC(N)=O`: the melting point was over 270 °C.
Regarding `N#CN=C(Nc1cccnc1)NC(NC(=O)c1ccc(Cl)cc1)C(F)(F)C(F)(F)F` (configuration not stated), the melting point fell in the range of 177 to 178 °C.
As for `O=C(NCCO[N+](=O)[O-])c1csc(-c2cccc([N+](=O)[O-])c2)n1`, the figure is 149 to 152 °C; as for `O=C1NC(=O)C(Cc2ccc(OCCn3cc(C(c4ccccc4)(c4ccccc4)c4ccccc4)c4ccccc43)cc2)S1` (configuration not stated), 66.6 to 70 °C; as for `NC(=O)[C@@H]1[C@H](Nc2c(Br)cnc3[nH]c(-c4ccc(N5CCOCC5)nc4)nc23)[C@H]2C=C[C@@H]1C2`, 288 to 290 °C.
Turning to `COc1ccc(NC(=O)C(=O)c2c3n(c4ccccc24)CCNCC3)cc1`, the melting point lay within 177 to 180 °C.
In the case of `Cn1c(C(=O)O)c(Oc2ccc(Cl)cc2N)c2ccccc21`, the melting point lay within 204 to 206 °C.
As for `CC(C)(Nc1ccccc1[N+](=O)[O-])C(=O)O`, the figure is 132 to 133 °C; as for `CC1(C)CCC(C)(C)c2cc(Sc3ccc(C(=O)O)cc3)ccc21`, 187 to 188 °C; as for `O=c1cc(-c2ccccc2)c2c(O)cc(O)cc2o1`, 179 to 182 °C.
The compound `CC(C)(C)CNc1nc(Cl)ncc1CN=[N+]=[N-]` registered a melting point of 133 to 136 °C.
`O=C1CCC(c2ccc3c(c2)C2(CC2)C(=O)N3)=NN1` gave a melting point of 256 to 257 °C.
For `CCOC(=O)C(=O)c1cn(-c2ccccc2)c2ccccc12`, the melting point is 109 to 110 °C.
The compound `CCOC(=O)c1ccc(C#Cc2ccc(C)cc2)c(OC)c1` came in with a melting point of 71 to 73 °C.
